Values joined by “and” are separate entries in the source; they are usually repeats but may differ in a detail not shown here. Equal values may be shown once. “Also recorded” adds a separate entry of the source. Read-outs that look alike come from different tables or passages of the source.
Key:
[1] = cited from earlier work; for AUC / Tmax / Cmax: psilocin
[2] = Usona's investigator's brochure; cited from earlier work
[3] = Stability studies on psilocin mucate capsule over a 12 month period; assay type: physicochemical; conditions: for Appearance POL-0018, Product / Assay TM-22-0392 (% Label Claim) / Total Impurities / Water Content by cKF TM-22-0012, Mean (2) / Water Content by cKF TM-22-0012, Prep 1 and 2 / Impurities TM-22-0392 (individual impurities): capsules
Description: Additional stability studies were performed on psilocin mutate (also known as psilocin mucic acid salt or conjugate or psilocin galactaric acid salt or conjugate) capsule over a 12 month period.
Appearance was evaluated by viewing of the sample on a watchglass over a black and white background.
Assay conditions for Test/Method TM-022-0392 assessing stability and impurities were as follows: • Mobile phase: MPA: 945 mL water, 5 mL H3PO4, pH to 5.7 with NaOH; MPB: Acetonitrile • Diluent: 80:20 Water:MeOH • Standard: 0.4 mg/mL Psilocin Mucic RS in Diluent • Sample: 0.4 mg/mL Psilocin Mucic API in Diluent • HPLC Conditions are depicted in Table 3.
• System suit: RSD NMT 2.0% (5 injections), Tailing NMT 2.0, Plate count NLT 10000
Calculations were against a bracketing external standard.
Identity of psilocin mucate was verified by ultraviolet (UV) assessment, wherein the UV spectrum of the main peak in the standard matched the UV spectrum of the main peak in the sample and by retention time wherein the retention time ratio was 0.98-1.02.

Swiss Albino Mice = test: 28-day oral (gavage) toxicity study with 14-day recovery
healthy subjects = test: Mood assessment, MMSE test and adverse events in the phase one study
[4] = Phase one single-dose pharmacokinetic study of capsules containing psilocin mucic acid conjugate (plasma psilocin)
[5] = 0.224 mg/kg p.o. PY fasted by Hasler
[6] = 2, 10 and 20 mg/kg bw/day oral, 28 days
[7] = females G4R vs G1R, considered not related
[8] = males G4R vs G1R, considered not related
[9] = single oral dose equivalent to 2 mg psilocin
[10] = plasma psilocin, 2 mg p.o. PM fasted

CN(C)CCc1c[nH]c2cccc(OP(=O)(O)O)c12 [psilocybin]
AUC [1, 5]: 32.71 μG H/L
Tmax [1, 5]: 1.75 h
Cmax ([1]; 0.224 mg/kg p.o. PY fasted by Hasler, psilocin dose 0.161 mg/kg p.o.): 0.0082 µg/mL
AUC ([1]; 1 mg i.v. PY by Hasler): 4 μG H/L
Tmax ([1]; 1 mg i.v. PY by Hasler): 0.0317 h
Cmax ([1]; 1 mg i.v. PY by Hasler, psilocin dose 0.718 mg, 0.01 mg/kg i.v.): 0.0129 µg/mL
AUC ([1]; 25 mg p.o. PY fasted by Holze): 83 μG H/L
Tmax ([1]; 25 mg p.o. PY fasted by Holze): 1.9 h
Cmax ([1]; 25 mg p.o. PY fasted by Holze, psilocin dose 17.95 mg, 0.256 mg/kg): 0.017 µg/mL
bioavailability, generally reported ([1]; varies from paper to paper): 50-80%
lethal dose 50% (LD50) [2]: 285 mg/kg

CN(C)CCc1c[nH]c2cccc(O)c12.O=C(O)[C@@H](O)[C@H](O)[C@H](O)[C@@H](O)C(=O)O [psilocin mucate]
stable for (duration of stability) [3]: at least 12 months
Appearance POL-0018, Product ([3]; 1 Month): Conforms
Assay TM-22-0392 (% Label Claim) ([3]; 1 Month): 98.8%
Total Impurities ([3]; 1 Month): 0.05%
Water Content by cKF TM-22-0012, Mean (2) ([3]; 1 Month): 0.9 % w/w
Water Content by cKF TM-22-0012, Prep 1 and 2 ([3]; 1 Month): 0.9 % w/w and 0.8 % w/w
Impurities TM-22-0392 (individual impurities) ([3]; 1 Month, impurity at RRT 1.11): RRT 1.11/0.05%
Appearance POL-0018, Product ([3]; 3 Months): Conforms
Assay TM-22-0392 (% Label Claim) ([3]; 3 Months): 101.1%
Total Impurities ([3]; 3 Months): <0.05%
Water Content by cKF TM-22-0012, Mean (2) ([3]; 3 Months): 1.6 % w/w
Water Content by cKF TM-22-0012, Prep 1 and 2 ([3]; 3 Months): 2.0 % w/w and 1.1 % w/w
Impurities TM-22-0392 (individual impurities) ([3]; 3 Months, all impurities): All < 0.05%
Appearance POL-0018, Product ([3]; 5 Months): Conforms
Assay TM-22-0392 (% Label Claim) ([3]; 5 Months): 103.2%
Total Impurities ([3]; 5 Months): <0.05%
Water Content by cKF TM-22-0012, Mean (2) ([3]; 5 Months): 1.3 % w/w
Water Content by cKF TM-22-0012, Prep 1 and 2 ([3]; 5 Months): 1.2 % w/w and 1.3 % w/w
Impurities TM-22-0392 (individual impurities) ([3]; 5 Months, all impurities): All < 0.05%
Appearance POL-0018, Product ([3]; 6 Months): Conforms
Assay TM-22-0392 (% Label Claim) ([3]; 6 Months): 98.8%
Total Impurities ([3]; 6 Months): <0.05%
Water Content by cKF TM-22-0012, Mean (2) ([3]; 6 Months): 1.4 % w/w
Water Content by cKF TM-22-0012, Prep 1 and 2 ([3]; 6 Months): 1.4 % w/w
Impurities TM-22-0392 (individual impurities) ([3]; 6 Months, all impurities): All < 0.05%
Appearance POL-0018, Product ([3]; 12 Months): Conforms
Assay TM-22-0392 (% Label Claim) ([3]; 12 Months): 98.4%
Total Impurities ([3]; 12 Months): <0.05%
Water Content by cKF TM-22-0012, Mean (2) ([3]; 12 Months): 1.3 % w/w
Water Content by cKF TM-22-0012, Prep 1 and 2 ([3]; 12 Months): 1.2 % w/w and 1.3 % w/w
Impurities TM-22-0392 (individual impurities) ([3]; 12 Months, all impurities): All < 0.05%
Total Impurities ([3]; Initial): 0.08%
Water Content by cKF TM-22-0012, Mean (2) ([3]; Initial): 1.2 % w/w
Impurities TM-22-0392 (individual impurities) ([3]; Initial, impurity at RRT 1.12): RRT 1.12/0.08%
Assay TM-22-0392 (% Label Claim) ([3]; Initial, specification 90.0-110.0%): 98.8%
Water Content by cKF TM-22-0012, Prep 1 and 2 ([3]; Initial, specification NMT 10.0%): 1.1 % w/w and 1.2 % w/w
Appearance POL-0018, Product ([3]; Initial, specification white to light brown powder partially filling white opaque capsules): Conforms
Functional observation battery (Swiss Albino Mice; [6]): No treatment related effects were observed
Mortality and morbidity check (Swiss Albino Mice; [6]): No mortality or morbidity was observed at any dose level
effects on general health, body weight, feed consumption, clinical pathology, gross pathology and histopathology (Swiss Albino Mice; 28 consecutive days, both sexes): no psilocin mucate related effects
Histopathology, overall (Swiss Albino Mice; G1 and G4 main group organs/tissues): no psilocin mucate related histopathological changes
histopathological lesions (background findings) (Swiss Albino Mice; G4 female, considered toxicologically irrelevant): single incidence of cortical cyst (unilateral) in kidneys; also recorded: presence of luteal cyst (unilateral) in ovaries
AChE (Swiss Albino Mice; G4 male and G3 female animals vs vehicle control, considered non-psilocin mucate related): statistically significant increase
body weight gain (Swiss Albino Mice; G4 males (20 mg/kg bw/day), day 1-8, vs control, not considered adverse): statistically significant decrease
net body weight gain (day 1 to day 43) (Swiss Albino Mice; G4 recovery females vs control, not due to treatment): statistically significant increase
foot splay measurement (Swiss Albino Mice; G4 recovery group females (20 mg/kg bw/day), last day of recovery, vs control, considered random biological variation): statistically significant increase
Gross pathology (Swiss Albino Mice; all groups, both sexes): No gross changes were observed
Clinical chemistry parameters, overall (Swiss Albino Mice; both sexes): No psilocin mucate related changes were observed
Hematology parameters, overall (Swiss Albino Mice; both sexes): No psilocin mucate related changes were observed
Coagulation parameters (Swiss Albino Mice; both sexes, main and recovery group): No statistically significant changes were observed
total bile acids (Swiss Albino Mice; females G3 and G4 vs G1, considered not related): statistically significant increase
aspartate aminotransferase and inorganic phosphorous (Swiss Albino Mice; [7]): decrease
creatinine, total protein, albumin and calcium (Swiss Albino Mice; [7]): increase
mean corpuscular hemoglobin (Swiss Albino Mice; [7]): increase
relative adrenals and brain weight (Swiss Albino Mice; [7]): decrease
absolute and relative thymus weight (Swiss Albino Mice; females G4 vs G1, considered not related): statistically significant increase
white blood cells and platelets (Swiss Albino Mice; females G4 vs vehicle control, considered not related): statistically significant increase
Ophthalmological examination (Swiss Albino Mice; main and recovery group animals): No ocular abnormalities were observed
relative eosinophil count (Swiss Albino Mice; males G2 and G4 vs vehicle control G1, considered not related): statistically significant decrease
chloride (Swiss Albino Mice; males G3 vs G1, considered not related): decrease
absolute and relative lungs weight and absolute prostate with seminal vesicles and coagulating gland weight (Swiss Albino Mice; [8]): statistically significant decrease
red blood cells and hemoglobin (Swiss Albino Mice; [8]): statistically significant increase
reticulocytes (Swiss Albino Mice; [8]): decrease
inorganic phosphorous (Swiss Albino Mice; males G4 vs vehicle control, considered not related): statistically significant increase
feed consumption (Swiss Albino Mice; males, G4 recovery group, day 29-36, vs control, considered incidental): statistically significant increase
Acetyl cholinesterase (AChE) level, overall (Swiss Albino Mice; mouse, in vivo): No psilocin mucate related changes were observed
NOAEL translated to a dose for an average person of 70 kg (Swiss Albino Mice; mouse, in vivo): 1,400 mg
Urinalysis parameters, overall (Swiss Albino Mice; mouse, in vivo): No psilocin mucate related changes were observed
NOAEL (Swiss Albino Mice; oral gavage, 28 consecutive days): 20 mg/kg bw/day
urine pH (Swiss Albino Mice; recovery female group (G4R) vs vehicle control recovery group, considered not related): statistically significant decrease
Clinical signs and detailed clinical signs observation (Swiss Albino Mice; treatment and recovery period): No clinical signs of toxicity were observed
FEELING STATUS (healthy subjects; individual subjects 01-10, single oral capsule, 2 mg psilocin equivalent, assessed by psychiatrist): Feel little beet happier, better; also recorded: Feel calm, less thoughts, happier; also recorded: Euphoric, better mood, it helps with; also recorded: Euphories, better mood, sleepy, feel; also recorded: Sleepy, better thoughts, less worried; also recorded: Did not feel change in mood but feeling; also recorded: More relaxed, want to drink sweet; also recorded: Better mood, feels hyper sexual; also recorded: Felt high mood, now they feel in good; also recorded: Less anxious, better mood, increase
MMSE (healthy subjects; individual subjects 01-10, single oral capsule, 2 mg psilocin equivalent, hallucinogenic substance expected to lower score below 25): 30 (3×) and 28 (3×) and 27 (2×) and 29 (2×)
adverse events: dizziness (healthy subjects; [9]): one subject reported slight and transient dizziness
serious adverse effects (healthy subjects; [9]): no serious adverse effects were reported
subjects with no hallucinogenic effect (healthy subjects; [9]): 9 of the 10
food effect upon oral administration ([4]; from comparison with published psilocybin studies): no food effect
Cmax as compared to an equal amount of psilocin generated by the metabolism of psilocybin ([4]; oral): higher Cmax
decrease in Tmax as compared to an equivalent formulation of psilocybin ([4]; oral): ≥ 2 fold
delivered concentrations of psilocin compared with intravenous psilocybin ([4]; oral formulation): equivalent to intravenous doses of psilocybin
patient-to-patient variability as compared to psilocybin treatment ([4]; oral formulation): decreased patient-to-patient variability
AUC [4, 10]: 11.189 μG H/L
Tmax [4, 10]: 0.75 h
Cmax ([4]; plasma psilocin, 2 mg p.o. PM fasted, psilocin dose 2 mg, 0.026 mg/kg p.o.): 0.00366 µg/mL
time until psilocin is essentially eliminated from circulation ([4]; single oral capsule, 2 mg psilocin equivalent): less than 12 hours

Source: patent US12102616B2, “Psilocin mucate” (LOBE SCIENCES LTD., priority 2022, dated 2024)
